Results as given in patent US20220233556A1, “COMPOSITIONS AND METHODS FOR TREATING OPHTHALMIC CONDITIONS” (Medicon Pharmaceuticals, Inc., priority 2017, published 2022).

Experiments:
NF-κB = NF-κB activation in the ILG of rabbits with DED; format: in vivo; details: 1 week of treatment, vs vehicle
Procedure: FIGS. 6A and 6B illustrate that PS suppresses the activation of NF-κB and MAPKs. In FIG. 6A, NF-κB activation was determined by EMSA in cultured human conjunctival cells stimulated with TNFα (top) and in the ILG of rabbits with Con A-induced DED and treated for one week with either vehicle or PS (bottom). In FIG. 6B, immunoblots detecting the activation of MAPKs by phosphorylation in cultured human conjunctival cells treated with PS at the indicated concentrations for 3.5 h. Loading control: β-actin.
Human conjunctival cells were treated with various concentrations of PS. Five hours later, TNF-α was added to the culture medium to a final concentration of 10 ng/ml and the status of NF-κB activation was determined by EMSA 1 h later. […] Similarly, after 1 week of treatment, PS suppressed NF-κB activation in the ILG of rabbits with DED compared to those treated with vehicle.

TGF-β = TGF-β levels in culture medium of human conjunctival cells (ELISA); format: cell-based
Procedure: FIGS. 7A and 7B illustrate that PS suppresses cytokine levels in cultured conjunctival cells and the ILG of rabbits with DED. […] Cytokine levels were determined by ELISA and represent the average of a three samples. In FIG. 7B, IL-1β and IL-8 levels were determined by ELISA in the lacrimal glands of rabbits with Con A-induced DED that were treated with vehicle or PS for one week as previously. Gland tissue was homogenized and ELISA was performed on whole-tissue lysates. n=8 glands/group. Values=mean±SEM.
Cells were treated with PS 1×IC50 and 2 h later TNF-α was added to the medium to a final concentration of 10 ng/ml. Culture media were harvested 24 h later and the levels of TGF-β, IL-6 and IL-8 were determined by ELISA. Of note, the levels of IL-1 were below the limit of detection.

[1] = test system: ocular inflammation (cataract surgery plus LPS); assay: Ocular inflammation after cataract surgery plus LPS in rabbits; format: in vivo, New Zealand white rabbits; details: PS 3.5% nanoparticles
Procedure: The anti-inflammatory effect of PS in New Zealand white rabbits was evaluated following cataract surgery and administration of the proinflammatory bacterial lipopolysaccharide (LPS). Briefly, the lens was removed by phacoemulsification and aspiration and replaced with the hydrophobic acrylic intraocular lens (AR40e, AMO). Upon completion of the operation, 1 μg of LPS dissolved in 10 μl PBS was injected into the vitreous to induce uveitis.
Rabbits were treated with PS 3.5% formulated in nanoparticles or vehicle (nanoparticles without PS) applied topically as eye drops three times per day. The first application was made within 1 h after completion of surgery. The rabbits were examined daily and the aqueous humor (AH) was sampled by needle aspiration on days 1, 3, and 5 following the injection of LPS. The number of infiltrating cells in the AH was determined following standard methods. On day 5, the rabbits were euthanized and the implanted lens was removed and fixed in 2.5% glutaraldehyde and the number of inflammatory cells attached to the lens was examined under a dissecting microscope.

[2] = Biodistribution of PS in human cadaveric eyes (ex vivo), PS nanoparticle solution; format: in vitro ADME; details: human eye ex vivo
Procedure: Human cadaveric eyes were obtained through the Lions Eye Bank for Long Island, Valley Stream, N.Y. They were preserved on ice and used within 2 h from removal from the donors.
The anterior surface of the human eye (corresponding to an area slightly larger than the palpebral fissure) was brought into direct contact with a PS nanoparticle (NP) solution (PS concentrations were 0.2%, 1% and 2%) and treated as above for the solution formulations of PS. […]

Compound: CCOP(=O)(OCC)OCCCCOC(=O)CC1=C(C)/C(=C/c2ccc([S+](C)[O-])cc2)c2ccc(F)cc21 (stereo not drawn) [PS, phosphosulindac]
- NF-κB activation in the ILG (NF-κB): suppressed
- reduction of TNF-α-stimulated TGF-β levels (TGF-β; PS 1×IC50, TNF-α 10 ng/ml, 24 h): 19%
- reduction of unstimulated TGF-β levels (TGF-β; PS 1×IC50, not statistically significant): 4.7%
- number of inflammatory cells in AH ([1]; day 3, vehicle 24−35×10^4/ml): < 70000 mL⁻¹
- inflammatory cells attached to implanted lens ([1]; day 5): very few or no cells
- ocular inflammation (clinical appearance) ([1]; eye drops three times per day, first 24 h): essentially eliminated
- PS in Cornea ([2]; 0.2% PS-NPs): 22.8 µM
- PS in Iris ([2]; 0.2% PS-NPs): 8.0 µM
- PS in Lens ([2]; 0.2% PS-NPs): 0.4 µM
- PS in Retina ([2]; 0.2% PS-NPs): 2.2 µM
- PS in Sclera ([2]; 0.2% PS-NPs): 30.7 µM
- PS in Cornea ([2]; 1% PS-NPs): 58.8 µM
- PS in Iris ([2]; 1% PS-NPs): 35.5 µM
- PS in Lens ([2]; 1% PS-NPs): 1.6 µM
- PS in Retina ([2]; 1% PS-NPs): 4.8 µM
- PS in Sclera ([2]; 1% PS-NPs): 152.0 µM
- PS in Cornea ([2]; 2% PS-NPs): 92.7 µM
- PS in Iris ([2]; 2% PS-NPs): 17.4 µM
- PS in Lens ([2]; 2% PS-NPs): 0.6 µM
- PS in Retina ([2]; 2% PS-NPs): 1.2 µM
- PS in Sclera ([2]; 2% PS-NPs): 113.0 µM
